Data from patent publication US8592174B2, “Peptidase substrates” (bioMérieux, S.A., priority 2009, dated 2013).

Key:
[1] = system: Yersinia enterocolitica 7605019; test: Peptidase detection on Columbia medium (Example 3); format: cell-based; conditions: 75 mg/l, 48 h 37° C.
Source text: (§1) A medium serving as a growth control (Columbia) and denoted C was also poured.

[2] = system: Providencia rettgeri 0706064; test: Peptidase detection on Columbia medium (Example 3); format: cell-based; conditions: 75 mg/l, 48 h 37° C.
Source text: as §1

[3] = system: Staphylococcus aureus 7811049; test: Peptidase detection on Columbia medium (Example 3); format: cell-based; conditions: 75 mg/l, 48 h 37° C.
Source text: as §1

[4] = system: Listeria monocytogenes 8812049; test: Peptidase detection on Columbia medium (Example 3); format: cell-based; conditions: 75 mg/l, 48 h 37° C.
Source text: as §1

[5] = system: Salmonella ser. Typhimurium 0801029; test: Peptidase detection on Columbia medium (Example 3); format: cell-based; conditions: 75 mg/l, 48 h 37° C.
Source text: as §1

[6] = system: Candida glabrata 0408083; test: Peptidase detection on Columbia medium (Example 3); format: cell-based; conditions: 75 mg/l, 48 h 37° C.
Source text: as §1

[7] = system: Enterococcus faecium 0610021; test: Peptidase detection on Columbia medium (Example 3); format: cell-based; conditions: 75 mg/l, 48 h 37° C.
Source text: as §1

[8] = system: Streptococcus pyogenes 9806380; test: Peptidase detection on Columbia medium (Example 3); format: cell-based; conditions: 75 mg/l, 48 h 37° C.
Source text: as §1

[9] = system: Morganella morganii 9207053; test: Peptidase detection on Columbia medium (Example 3); format: cell-based; conditions: 75 mg/l, 48 h 37° C.
Source text: as §1

[10] = system: Klebsiella pneumoniae 0008009; test: Peptidase detection on Columbia medium (Example 3); format: cell-based; conditions: 75 mg/l, 48 h 37° C.
Source text: as §1

[11] = system: Bacillus subtilis 0204038; test: Peptidase detection on Columbia medium (Example 3); format: cell-based; conditions: 75 mg/l, 48 h 37° C.
Source text: as §1

[12] = system: Burkholderia cepacia 7507032; test: Peptidase detection on Columbia medium (Example 3); format: cell-based; conditions: 75 mg/l, 48 h 37° C.
Source text: as §1

[13] = system: Acinetobacter baumannii 0604029; test: Peptidase detection on Columbia medium (Example 3); format: cell-based; conditions: 75 mg/l, 48 h 37° C.
Source text: as §1

[14] = system: Staphylococcus epidermidis 0203050; test: Peptidase detection on Columbia medium (Example 3); format: cell-based; conditions: 75 mg/l, 48 h 37° C.
Source text: as §1

[15] = system: Candida albicans 0801025; test: Peptidase detection on Columbia medium (Example 3); format: cell-based; conditions: 75 mg/l, 48 h 37° C.
Source text: as §1

[16] = system: Enterobacter cloacae 0604040; test: Peptidase detection on Columbia medium (Example 3); format: cell-based; conditions: 75 mg/l, 48 h 37° C.
Source text: as §1

[17] = system: Citrobacter freundii 0006197; test: Peptidase detection on Columbia medium (Example 3); format: cell-based; conditions: 75 mg/l, 48 h 37° C.
Source text: as §1

[18] = system: Escherichia coli 0002005; test: Peptidase detection on Columbia medium (Example 3); format: cell-based; conditions: 75 mg/l, 48 h 37° C.
Source text: as §1

[19] = system: MRSA 0303033; test: Peptidase detection on Columbia medium (Example 3); format: cell-based; conditions: 75 mg/l, 48 h 37° C.
Source text: as §1

[20] = system: Enterococcus faecalis 0008192; test: Peptidase detection on Columbia medium (Example 3); format: cell-based; conditions: 75 mg/l, 48 h 37° C.
Source text: as §1

[21] = system: Serratia marcescens 7303004; test: Peptidase detection on Columbia medium (Example 3); format: cell-based; set-up: Coloration strength: key to the marks not given beside the values; conditions: 75 mg/l, 48 h 37° C.
Source text: as §1

[22] = system: Pseudomonas aeruginosa 0001001; test: Peptidase detection on Columbia medium (Example 3); format: cell-based; set-up: Coloration strength: key to the marks not given beside the values; conditions: 75 mg/l, 48 h 37° C.
Source text: as §1

[23] = system: Staphylococcus epidermidis NCTC 11 047; test: Peptidase detection on Columbia medium (Example 2); format: cell-based; set-up: key to Growth: NG: No growth; 0.5: weak growth; 1: moderate growth; 2: good growth; key to Fluo. / Color / Color post-acid.: —: no color; conditions: 40 mg in 400 ml Columbia, 24 h 37° C.
[24] = system: Enterobacter cloacae NCTC 11 936; test: Peptidase detection on Columbia medium (Example 2); format: cell-based; set-up: key to Growth: NG: No growth; 0.5: weak growth; 1: moderate growth; 2: good growth; conditions: 40 mg in 400 ml Columbia, 24 h 37° C.
[25] = system: Yersinia enterocolitica NCTC 11 176; test: Peptidase detection on Columbia medium (Example 2); format: cell-based; set-up: key to Growth: NG: No growth; 0.5: weak growth; 1: moderate growth; 2: good growth; conditions: 40 mg in 400 ml Columbia, 24 h 37° C.
[26] = system: Candida albicans ATCC 90 028; test: Peptidase detection on Columbia medium (Example 2); format: cell-based; set-up: key to Growth: NG: No growth; 0.5: weak growth; 1: moderate growth; 2: good growth; key to Fluo. / Color / Color post-acid.: —: no color; conditions: 40 mg in 400 ml Columbia, 24 h 37° C.
[27] = system: Staphylococcus aureus NCTC 11 939; test: Peptidase detection on Columbia medium (Example 2); format: cell-based; set-up: key to Growth: NG: No growth; 0.5: weak growth; 1: moderate growth; 2: good growth; key to Fluo. / Color / Color post-acid.: —: no color; conditions: 40 mg in 400 ml Columbia, 24 h 37° C.
[28] = system: Bacillus subtilis NCTC 9 372; test: Peptidase detection on Columbia medium (Example 2); format: cell-based; set-up: key to Growth: NG: No growth; 0.5: weak growth; 1: moderate growth; 2: good growth; key to Fluo. / Color / Color post-acid.: —: no color; conditions: 40 mg in 400 ml Columbia, 24 h 37° C.
[29] = system: Gram-negative bacteria, Gram-positive bacteria, yeasts; conditions: conclusion of Example 2
Procedure: 40 mg of each of the substrates were dissolved in 4 ml of dimethyl sulfoxide (80 mg for Asn-ASQM^+) and added to 400 ml of previously autoclaved Columbia medium. The 6 media were distributed into Petri dishes 90 mm in diameter, in a proportion of 20 ml per dish.
Seventeen strains of microorganisms stemming from collections and belonging to various species of bacteria and yeasts are inoculated in spots of approximately 10 000 colony-forming units.
The media are incubated for 24 hours at 37° C., and then the colonies formed are examined visually, with or without the addition of acid and under a UV lamp at 365 nm.

[30] = system: Serratia marcescens NCTC 10 211; test: Peptidase detection on Columbia medium (Example 2); format: cell-based; set-up: key to Growth: NG: No growth; 0.5: weak growth; 1: moderate growth; 2: good growth; conditions: 40 mg in 400 ml Columbia, 24 h 37° C.
[31] = system: Streptococcus pyogenes NCTC 8 306; test: Peptidase detection on Columbia medium (Example 2); format: cell-based; set-up: key to Growth: NG: No growth; 0.5: weak growth; 1: moderate growth; 2: good growth; key to Fluo. / Color / Color post-acid.: —: no color; conditions: 40 mg in 400 ml Columbia, 24 h 37° C.
[32] = system: Escherichia coli NCTC 10 418; test: Peptidase detection on Columbia medium (Example 2); format: cell-based; set-up: key to Growth: NG: No growth; 0.5: weak growth; 1: moderate growth; 2: good growth; conditions: 40 mg in 400 ml Columbia, 24 h 37° C.
[33] = system: Enterococcus faecalis NCTC 775; test: Peptidase detection on Columbia medium (Example 2); format: cell-based; set-up: key to Growth: NG: No growth; 0.5: weak growth; 1: moderate growth; 2: good growth; key to Fluo. / Color / Color post-acid.: —: no color; conditions: 40 mg in 400 ml Columbia, 24 h 37° C.
[34] = system: Candida glabrata NCPF 3 943; test: Peptidase detection on Columbia medium (Example 2); format: cell-based; set-up: key to Growth: NG: No growth; 0.5: weak growth; 1: moderate growth; 2: good growth; key to Fluo. / Color / Color post-acid.: —: no color; conditions: 40 mg in 400 ml Columbia, 24 h 37° C.
[35] = system: Enterococcus faecium NCTC 7 171; test: Peptidase detection on Columbia medium (Example 2); format: cell-based; set-up: key to Growth: NG: No growth; 0.5: weak growth; 1: moderate growth; 2: good growth; key to Fluo. / Color / Color post-acid.: —: no color; conditions: 40 mg in 400 ml Columbia, 24 h 37° C.
[36] = system: Pseudomonas aeruginosa NCTC 10 662; test: Peptidase detection on Columbia medium (Example 2); format: cell-based; set-up: key to Growth: NG: No growth; 0.5: weak growth; 1: moderate growth; 2: good growth; conditions: 40 mg in 400 ml Columbia, 24 h 37° C.
[37] = system: Staphylococcus aureus NCTC 6 571; test: Peptidase detection on Columbia medium (Example 2); format: cell-based; set-up: key to Growth: NG: No growth; 0.5: weak growth; 1: moderate growth; 2: good growth; key to Fluo. / Color / Color post-acid.: —: no color; conditions: 40 mg in 400 ml Columbia, 24 h 37° C.
[38] = system: Salmonella typhimurium NCTC 74; test: Peptidase detection on Columbia medium (Example 2); format: cell-based; set-up: key to Growth: NG: No growth; 0.5: weak growth; 1: moderate growth; 2: good growth; conditions: 40 mg in 400 ml Columbia, 24 h 37° C.
[39] = system: Providencia rettgeri NCTC 7 475; test: Peptidase detection on Columbia medium (Example 2); format: cell-based; set-up: key to Growth: NG: No growth; 0.5: weak growth; 1: moderate growth; 2: good growth; conditions: 40 mg in 400 ml Columbia, 24 h 37° C.
[40] = system: Listeria monocytogenes NCTC 11 994; test: Peptidase detection on Columbia medium (Example 2); format: cell-based; set-up: key to Growth: NG: No growth; 0.5: weak growth; 1: moderate growth; 2: good growth; key to Fluo. / Color / Color post-acid.: —: no color; conditions: 40 mg in 400 ml Columbia, 24 h 37° C.

Cc1cc(C=Cc2ccc(NC(=O)[C@@H]3CCC(=O)N3)cc2)c2ccccc2[n+]1C.[I-] [pyroglutamyl-4-(4′-amidostyryl)-N-methylquinaldinium iodide]
++: Growth ([3]; control C: ++) | Growth ([4]; control C: ++) | Growth ([7]; control C: ++) | Growth ([12]; control C: ++) | Growth ([19]; control C: +++) | Growth ([20]; control C: ++) | Coloration strength [21]
+: Growth ([1]; control C: ++) | Growth ([15]; control C: ++)
+++: Growth ([2]; control C: +++) | Growth ([5]; control C: +++) | Growth ([9]; control C: +++) | Growth ([10]; control C: +++) | Growth ([13]; control C: +++) | Growth ([16]; control C: +++) | Growth ([17]; control C: +++) | Growth ([18]; control C: +++) | Growth ([21]; control C: +++) | Coloration strength [22] | Growth ([22]; control C: +++)
−: Coloration strength [1] | Coloration strength [2] | Coloration strength [3] | Coloration strength [4] | Coloration strength [5] | Coloration strength [6] | Growth ([6]; control C: +) | Coloration strength [7] | Coloration strength [8] | Growth ([8]; control C: −) | Coloration strength [9] | Coloration strength [10] | Coloration strength [11] | Growth ([11]; control C: +++) | Coloration strength [12] | Coloration strength [13] | Coloration strength [14] | Growth ([14]; control C: ++) | Coloration strength [15] | Coloration strength [16] | Coloration strength [17] | Coloration strength [18] | Coloration strength [19] | Coloration strength [20]
Orangey-red: Color [22]

NCCC(=O)Nc1ccc(C=Cc2ccc3ccccc3n2)cc1 [β-Ala-ASQ, β-alanyl-2-(4′-amidostyryl)quinoline]
Orange: Color post-acid. ([30]; addition of acid) | Color post-acid. ([36]; addition of acid)
Pale yellow: Color post-acid. ([24]; addition of acid) | Color post-acid. ([25]; addition of acid) | Color post-acid. ([32]; addition of acid) | Color post-acid. ([38]; addition of acid) | Color post-acid. ([39]; addition of acid)
NG: Growth [23] | Growth [26] | Growth [27] | Growth [28] | Growth [31] | Growth [33] | Growth [34] | Growth [35] | Growth [37] | Growth [40]
Green: Fluo. ([30]; UV lamp 365 nm) | Fluo. ([36]; UV lamp 365 nm)
2: Growth [24] | Growth [25] | Growth [30] | Growth [32] | Growth [36] | Growth [38] | Growth [39]
—: Color [23] | Fluo. ([23]; UV lamp 365 nm) | Color post-acid. ([23]; addition of acid) | Color [26] | Fluo. ([26]; UV lamp 365 nm) | Color post-acid. ([26]; addition of acid) | Color [27] | Fluo. ([27]; UV lamp 365 nm) | Color post-acid. ([27]; addition of acid) | Color [28] | Fluo. ([28]; UV lamp 365 nm) | Color post-acid. ([28]; addition of acid) | Color [31] | Fluo. ([31]; UV lamp 365 nm) | Color post-acid. ([31]; addition of acid) | Color [33] | Fluo. ([33]; UV lamp 365 nm) | Color post-acid. ([33]; addition of acid) | Color [34] | Fluo. ([34]; UV lamp 365 nm) | Color post-acid. ([34]; addition of acid) | Color [35] | Fluo. ([35]; UV lamp 365 nm) | Color post-acid. ([35]; addition of acid) | Color [37] | Fluo. ([37]; UV lamp 365 nm) | Color post-acid. ([37]; addition of acid) | Color [40] | Fluo. ([40]; UV lamp 365 nm) | Color post-acid. ([40]; addition of acid)
toxic with respect to certain groups: toxicity / growth of microorganisms [29]
